Data taken from patent publication US20210246505A1, “COMPOSITIONS & METHODS FOR MONITORING DNA REPAIR” (MEMORIAL SLOAN KETTERING CANCER CENTER, priority 2018, published 2021).

How the values were obtained:
Assay type in all cases: cell-based, human
HAP1 cells = test: DSBR-seq of a Cas9 break at the AAVS1 locus, HAP1 cells
Description: (§1) In this Example, transfection of the pX330 plasmid, containing the Cas9 and guide RNA (gRNA) expression cassettes to the AAVS1 safe locus, is used. Genomic DNA (gDNA) is collected 3 days post-transfection. To asses—DNA repair by HR, a donor template containing three substitutions around the protospacer adjacent motif (PAM) which limits cut-recut cycles is transfected also. A 500 bp amplicon surrounding the break is used for rapid measurement of DSBR errors via the widely used T7 endonuclease I assay. A 201 bp amplicon surrounding the cut site, but outside of the HR template is amplified, purified via E-gel electrophoresis system, converted into Illumina sequencing libraries, quantified via qPCR, and then sequenced at 200,000× read depth using paired end 150 bp (PE150) Mi-Seq. Unique, nonsingleton reads (occurring more than once) are aligned to the reference sequence using pairwise alignment (for example using Python). The indels and substitutions are cataloged relative to the break site and microhomology (MH) is determined (for example using an internally developed and validated algorithm, see FIG. 8). The reads are categorized as consequences of NHEJ (≤5 bp deletion) or MMEJ (>5 bp deletion with >2 bp MH). The donor template DNA contains key substitutions—thereby providing a readout of HR. […] The PE150 reads are merged using PEAR and then condensed into a set of unique reads. […]

HEK293T cells = test: DSBR-seq of a Cas9 break at the AAVS1 locus, HEK293T cells
Description: In this Example, transfection of the pX330 plasmid, containing the Cas9 and guide RNA (gRNA) expression cassettes to the AAVS1 safe locus, is used. Genomic DNA (gDNA) is collected 3 days post-transfection. To asses—DNA repair by HR, a donor template containing three substitutions around the protospacer adjacent motif (PAM) which limits cut-recut cycles is transfected also. A 500 bp amplicon surrounding the break is used for rapid measurement of DSBR errors via the widely used T7 endonuclease I assay. A 201 bp amplicon surrounding the cut site, but outside of the HR template is amplified, purified via E-gel electrophoresis system, converted into Illumina sequencing libraries, quantified via qPCR, and then sequenced at 200,000× read depth using paired end 150 bp (PE150) Mi-Seq. Unique, nonsingleton reads (occurring more than once) are aligned to the reference sequence using pairwise alignment (for example using Python). The indels and substitutions are cataloged relative to the break site and microhomology (MH) is determined (for example using an internally developed and validated algorithm, see FIG. 8). The reads are categorized as consequences of NHEJ (≤5 bp deletion) or MMEJ (>5 bp deletion with >2 bp MH). The donor template DNA contains key substitutions—thereby providing a readout of HR. These experiments are also performed in cells that are isogenic knockout controls of key NHEJ, MMEJ and HR components and using pharmacologic controls in which DNA-PKcs, RAD51, and PARP are inhibited […]. By comparing the experimental reads against those obtained from the knockout controls and/or pharmacologic controls, the specific reads dependent on each pathway were discovered. (FIG. 1). Thus, these methods involve empirically-determined deletion profiles, derived from known controls deficient in each pathway, as signatures to clearly separate and quantify DSBR events occurring by HR, NHEJ and MMEJ. The single double strand break allows for direct analysis of pathway choice in a native genomic location with a blunt-ended DSB. Because both cell cycle dependent pathways (MMEJ and […]) are measured in the same experiment, there is an effective built-in control for confounding cell cycle effects on the use of these pathways. The AAVS1 genomic location was chosen due to its characterization as a safe site of integration without any known phenotypic effects. Transfection of the pX330 plasmid, containing the Cas9 and gRNA expression cassettes, is performed by nucleofection or liposome-based techniques. To detect DNA repair by homologous recombination (HR), a donor template is used containing three substitutions, one on the gRNA side of the break and two on the other side of the break, destroying the protospacer adjacent motif (PAM) and thereby limiting cut-recut cycles. A 500 bp amplicon surrounding the break is used for rapid measurement of DSBR errors via the widely used T7 endonuclease I assay. A 201 bp amplicon surrounding the cut site, but outside of the HR template is amplified, purified via E-gel electrophoresis system, converted into Illumina sequencing libraries, quantified via qPCR, and then sequenced at 200,000× read depth. Paired end 150 bp (PE150) reads are obtained, affording a central 100 bp region of high sequence fidelity adjacent to the cut site. The PE150 reads are merged using PEAR and then condensed into a set of unique reads. Unique reads that only occur once are discarded, as they are likely low-quality reads due to sequencing error. These unique, nonsingleton reads are aligned to the reference sequence using pairwise alignment through Python. The indels and substitutions are cataloged relative to the breaksite. […] The profile of deletion sizes and extent of microhomology differs between break sites, likely owing to site dependent availability of microhomology. We utilized the DNA-PKcs inhibitor NU7441 to measure NHEJ inhibition. […]

[1] = system: HCC1937 BRCA1 deficient cell line; test: DSBR-seq of a Cas9 break at the AAVS1 locus, HCC1937 BRCA1 deficient cells; details: with or without inhibitor
Description: as §1

Compound	increase of the frequency of introduced errors overall (HAP1 cells; G1 arrest by the drug)	12 base pair deletion with 5 bp of microhomology read (HAP1 cells; HAP1 cells)	12 base pair deletion with 5 bp of microhomology read (HEK293T cells; 293T cells)	specific 1 bp deletion read (HEK293T cells; 293T cells)	HR usage (HEK293T cells; FIG. 1I)	MMEJ usage (HEK293T cells; FIG. 1I)	NHEJ usage (HEK293T cells; FIG. 1I)	decrease of the amplitude of the deletion peak (HEK293T cells; HEK293T cells, DSB at position 120 of amplicon)	frequency of HR (donor substitution) peaks (HEK293T cells; HEK293T cells, donor template)	width of the deletion peak (HEK293T cells; HEK293T cells, reflects use of MMEJ)	HR observed [1]
CC(=O)c1c(C)c2cnc(Nc3ccc(N4CCNCC4)cn3)nc2n(C2CCCC2)c1=O [palbociclib]	~4 fold	–	–	–	–	–	–	–	–	–	–
O=c1cc(N2CCOCC2)oc2c(-c3cccc4c3sc3ccccc34)cccc12 [NU7441]	–	enhanced	enhanced	suppressed	increases	increases	suppresses	more than 90%	increased in frequency	increases	no HR is observed
